# Data published in patent US12606594B2, “Heterotandem bicyclic peptide complexes” (BicycleTx Limited, priority 2019, dated 2026).
# Where “and” joins values, the source holds several entries; their conditions need not be identical. Equal values may be shown once. Read-outs that look alike come from different tables or passages of the source. Starred links: 1 amine or outer side, 2 acyl side, 3 side chain; linkers in the order of their positions; H or OH if unused. Positions of bridges follow the written chain, without caps; N, C: chain ends. Non-standard residues stand in square brackets, D forms with d. Chains are numbered I, II in the order given. X1 = O=C(CCOCCOCCOCCN(CCOCCOCCOCCn1cc(CCC(=O)[*:2])nn1)CCOCCOCCOCCn1cc(CCC(=O)[*:3])nn1)[*:1]; TATA = O=C(CC[*:1])N1CN(C(=O)CC[*:2])CN(C(=O)CC[*:3])C1; d1Nal = N[C@H](Cc1cccc2ccccc12)C(=O)O; Hyp = O=C(O)[C@@H]1C[C@@H](O)CN1; hArg = N=C(N)NCCCC[C@H](N)C(=O)O; tBuAla = CC(C)(C)C[C@H](N)C(=O)O; Nle = CCCC[C@H](N)C(=O)O
# Key:
# [1] = CD137 reporter assay co-culture with tumor cells (Promega CD137 luciferase reporter, Jurkat cells); type: cell-based; settings: read-out: Emax (Fold Induction over background)
# Protocol: (§1) Culture medium, referred to as R1 media, is prepared by adding 1% FBS to RPMI-1640 (component of Promega kit CS196005). Serial dilutions of test articles in R1 are prepared in a sterile 96 well-plate. Add 25 μL per well of test articles or R1 (as a background control) to designated wells in a white cell culture plate. Tumor cells* are harvested and resuspended at a concentration of 400,000 cells/mL in R1 media. Twenty five (25) μL/well of tumor cells are added to the white cell culture plate. Jurkat cells (Promega kit CS196005, 0.5 mL) are thawed in the water bath and then added to 5 ml pre-warmed R1 media. Twenty five (25) […] of Jurkat cells are then added to the white cell culture plate. Incubate the cells and test articles for 6 h at 37° C., 5% CO2. At the end of 6 h, add 75 µL/well Bio-Glo™ reagent (Promega) and incubate for 10 min before reading luminescence in a plate reader (Clariostar, BMG). The fold change relative to cells alone (Jurkat cells+Cell line used in co-culture) is calculated and plotted in GraphPad Prism as log(agonist) vs response to determine EC50 (nM) and Fold Induction over background (Max).
# (§2) The tumor cell types used in co-culture for EphA2 are A549, PC-3 and HT29.
# CD137 = experiment: as above; type: cell-based
# Protocol: as §1, §2
# [2] = Pharmacokinetics of BCY13272 in SD rats; type: in vivo; settings: 3.6 mg/kg IV infusion (15 min)
# Protocol: Male SD Rats were dosed with heterotandem complex BCY13272 formulated in 25 mM Histidine HCl, 10% sucrose pH 7 by IV bolus or IV infusion (15 minutes). Serial bleeding (about 80 μL blood/time point) was performed via submandibular or saphenous vein at each time point. All blood samples were immediately transferred into prechilled microcentrifuge tubes containing 2 μL K2-EDTA (0.5M) as anti-coagulant and placed on wet ice. Blood samples were immediately processed for plasma by centrifugation at approximately 4° C., 3000 g. The precipitant including internal standard was immediately added into the plasma, mixed well and centrifuged at 12,000 rpm, 4° C. for 10 minutes. The supernatant was transferred into pre-labeled polypropylene microcentrifuge tubes, and then quick-frozen over dry ice. The samples were stored at […] or below as needed until analysis. 7.5 μL of the supernatant samples were directly injected for LC-MS/MS analysis using an Orbitrap Q Exactive in positive ion mode to determine the concentrations of analyte. Plasma concentration versus time data were analyzed by non-compartmental approaches using the Phoenix WinNonlin 6.3 software program. CO, Cl, Vdss, T½, AUC(0-last), AUC(0-inf), MRT(0-last), MRT(0-inf) and graphs of plasma concentration versus time profile were reported.
substance,measurement,setting,value
"I: A[hArg]DC[Hyp]LVNPLCLEP[d1Nal]WTC-NH2 / II: Ac-C[tBuAla]PE[dK]PYCFADPY[Nle]CA-NH2 / III: Ac-C[tBuAla]PE[dK]PYCFADPY[Nle]CA-NH2 (linker I:4-I:11-I:18, II:1-II:8-II:15, III:1-III:8-III:15 via TATA (inferred); linker I:N-II:5-III:5 via X1 (inferred)) [BCY13272]",fold induction,[1]; EphA2 cell line A549,25.7
same,fold induction,[1]; EphA2 cell line HT-29,36.5
same,fold induction,[1]; EphA2 cell line PC-3,44.2
same,Emax (Fold Induction over background),CD137; EphA2 cell line A549,23.6 and 30.2
same,Emax (Fold Induction over background),CD137; EphA2 cell line HT-29,26 and 36.4
same,Emax (Fold Induction over background),CD137; EphA2 cell line PC-3,53 and 44.5
same,T½ (terminal half-life),[2]; 3.6 mg/kg,2.9 h
same,clearance,"[2]; rat, in vivo, read-out: Clp (clearance)",7.4 mL/min/kg
